{"source": "patent EP0377846A1", "about": "“Pharmaceutical mixture preparation containing nucleoside derivatives and pentosan polysulfate, and its manufacture and use” (HOECHST AKTIENGESELLSCHAFT, priority 1988, dated 1990)", "tested_on": "HIV 1", "assay": "Inhibition of HIV-induced syncytium formation in cultures of human lymphocytes (test of preparations against HIV in cell culture, microscopic reading on day 4 after infection)", "format": "cell-based", "details": "Human immunodeficiency virus 1, 96 h, footnote of Tabelle 1, AZT alone, read-out: MHK-Wert", "method": "RPMI pH 6,8 Komplettes Medium enthält zusätzlich 20 % foetales Kälberserum und 20 IU/ml rekombinantes Interleukin 2.\nAus frischem Spenderblut mittels Ficoll^R-Gradientenzentrifugation isolierte Lymphozyten werden unter Zusatz von 2 µg/ml Phytohämagglutinin (Wellcome) in komplettem Medium 36 h bei 37°C unter 5 % CO₂ kultiviert. Die Zellen werden nach Zusatz von 10 % DMSO bei einer Zelldichte von 5 x 10⁶ eingefroren und in flüssigem Stickstoff gelagert. Für den Versuch werden die Zellen aufgetaut, in RPMI-Medium gewaschen und in komplettem Medium 3 - 4 Tage kultiviert.\nDie Prüfpräparate werden in komplettem Medium gelöst, üblicherweise in einer Konzentration von 1,2 mg/ml. In 24er Multiwell-Schalen werden jeweils 0,5 ml komplettes Medium gegeben. Nach Zusatz von 0,1 ml des gelösten Präparates wird durch Übertragung von jeweils 0,1 ml das Präparat in einer geometrischen Verdünnungsreihe, […], verdünnt. Zu allen Ansätzen werden 0,4 ml einer Suspension mit 5 x 10⁵ Lymphozyten pro ml gegeben.\nDie Ansätze werden mit 0,1 ml eines Überstandes von HIV 1 infizierten Lymphozyten versetzt, der so eingestellt ist, daß im Ansatz der cytopathogene Effekt nach 3 - 4 Tagen erkennbar ist. Die Multiplizität der infektiösen Einheit beträgt hierbei 0,01 - 0,02.\nDer Versuchsansatz enhält damit folgende Komponenten in komplettem Medium [formula] […]"}
{"smiles": "Cc1cn([C@H]2C[C@H](N=[N+]=[N-])[C@@H](CO)O2)c(=O)[nH]c1=O", "note": "[3′-Azido-3′-deoxythymidin]", "values": [{"measurement": "MIC", "value": 0.1, "unit": "µg/mL"}]}
